Reference: patent US12319726B2, “Method for treating CD40-mediated diseases” (CASE WESTERN RESERVE UNIVERSITY, priority 2008, dated 2025)
Where a SMILES comes first, the peptide text is derived from it. [ ]: non-standard residue; d: D form.

What was measured:
CD40-TRAF2,3 signaling = test: NF-κB luciferase reporter assay in mHEVc expressing hmCD40 ΔT6 (signals through the TRAF2,3 binding site); format: cell-based, mouse; conditions: 1 μM, 3 hr pre-incubation, hmCD40 ΔT6 cells; P<0.01
Description: Mouse endothelial cells (mHEVc) that express an NF-κB response element that drives transcription of a luciferase reporter plus either hmCD40 ΔT2,3 or hmCD40 ΔT6 were pre-incubated with ri control peptide (Ctr P) or ri CD40-TRAF2,3 blocking peptide (T2,3 BP; both at 1 μM) or medium alone followed by stimulation with human CD154. Data are expressed as fold-increase in normalized luciferase activity in cells stimulated with CD154 compared to cells treated with respective peptide in the absence of CD154. Data shown represent Mean±SD. Results are representative of 2 independent experiments. **P<0.01.
Peptides were tested as described using the mouse endothelial cells mHEVc that expresses a chimera of the extracellular domain of human CD40 and intracytoplasmic domain of mouse CD40 (hmCD40) with either a mutation that prevents recruitment of TRAF2,3 (hmCD40 ΔT2,3) or TRAF6 (hmCD40 ΔT6). These cells were transfected with pGL4.32luc2P/NF-κB-RE/Hygro vector (Promega Corporation, Madison, WI) encoding an NF-κB response element that drives the luciferase reporter gene luc2P (Photinus pyralis). Cells were pre-incubated with peptides for 3 hr. followed by stimulation with human CD154. Luciferase activity was assessed using a Steady-Glo luciferase assay system (Promega Corporation) and a luminometer. The effects of peptides on cell viability were examined using alamarBlue cell viability assay. […]

[1] = system: human retinal endothelial cells; format: cell-based
Text: (§1) Peptide consisted of the TRAF2,3 binding site of CD40 that was made cell permeable by linking them to the TAT47-57 cell penetrating peptide. Peptides were synthesized using D-amino acids following reverse amino acid sequence (ri format). The sequences for the CD40-TRAF2,3 blocking peptide was —NH2-rrrqrrkkrgy ghlteqvhaatn-OH (SEQ ID NO: 49). The TAT47-57 sequence is underlined. The peptide contains a proline (p) to histidine (h) substitution (shown in italics) that enhances affinity to TRAF2. Control (scrambled) peptide consisted of NH2-rrrqrrkkrgy ntqalahtgevh-OH (SEQ ID NO: 50). The blocking peptide was also synthesized with Alexa Fluor 488 conjugated via maleimide coupling to an additional Cys in the N terminus. Peptides were manufactured by Biopeptide Co. (San Diego, CA) and were low in endotoxin and >98% pure by HPLC. Peptides were used at 1 μM in vitro experiments and 1 μg for in vivo studies unless otherwise stated. Peptides were not toxic to human Müller and retinal endothelial cells as assessed by alamarBlue cell viability assay (Invitrogen Corporation).
(§2) Primary human retinal endothelial cells were obtained as described (9) and cultured in complete medium supplemented with endothelial cell growth supplement from bovine pituitary (15 μg/ml; Sigma Chemical, St Louis, MO) and insulin/transferrin/selenium (Sigma Chemical). Cell identity was confirmed by incorporation of acetylated low-density lipoprotein (>90%). Endothelial cells were used between passages 3 to 6. The human Müller cell line MIO M1 (gift from Dr. Gloria Limb; University College London, UK; >95% vimentin^+, CRALBP^+ and GFAP^−) was also used. Endothelial cells were incubated with multimeric human CD154 to induce CD40 stimulation (obtained from Dr. Richard Kornbluth, Multimeric Biotherapeutics Inc., La Jolla, CA) or with a non-functional CD154 mutant (T147N) as control.
(§3) Peptides were tested as described using the mouse endothelial cells mHEVc that expresses a chimera of the extracellular domain of human CD40 and intracytoplasmic domain of mouse CD40 (hmCD40) with either a mutation that prevents recruitment of TRAF2,3 (hmCD40 ΔT2,3) or TRAF6 (hmCD40 ΔT6). These cells were transfected with pGL4.32luc2P/NF-κB-RE/Hygro vector (Promega Corporation, Madison, WI) encoding an NF-κB response element that drives the luciferase reporter gene luc2P (Photinus pyralis). Cells were pre-incubated with peptides for 3 hr. followed by stimulation with human CD154. Luciferase activity was assessed using a Steady-Glo luciferase assay system (Promega Corporation) and a luminometer. The effects of peptides on cell viability were examined using alamarBlue cell viability assay.

human Müller cells = format: cell-based
Text: as §1, §2, §3

CC(C)C[C@@H](NC(=O)[C@@H](Cc1c[nH]cn1)NC(=O)CNC(=O)[C@@H](Cc1ccc(O)cc1)NC(=O)CNC(=O)[C@@H](CCCNC(=N)N)NC(=O)[C@@H](CCCCN)NC(=O)[C@@H](CCCCN)NC(=O)[C@@H](CCCNC(=N)N)NC(=O)[C@@H](CCCNC(=N)N)NC(=O)[C@@H](CCC(N)=O)NC(=O)[C@@H](CCCNC(=N)N)NC(=O)[C@@H](CCCNC(=N)N)NC(=O)[C@H](N)CCCNC(=N)N)C(=O)N[C@@H](C(=O)N[C@H](CCC(=O)O)C(=O)N[C@H](CCC(N)=O)C(=O)N[C@@H](C(=O)N[C@H](Cc1c[nH]cn1)C(=O)N[C@H](C)C(=O)N[C@H](C)C(=O)N[C@@H](C(=O)N[C@H](CC(N)=O)C(=O)O)[C@H](C)O)C(C)C)[C@H](C)O [ri CD40-TRAF2,3 blocking peptide, NH2-rrrqrrkkrgy ghlteqvhaatn-OH] (H-[dR][dR][dR][dQ][dR][dR][dK][dK][dR]G[dY]G[dH][dL][dT][dE][dQ][dV][dH][dA][dA][dT][dN]-OH)
NF-κB activity (luciferase) after human CD154 (CD40-TRAF2,3 signaling): inhibited NF-κB activity | toxicity (alamarBlue cell viability assay) [1]: not toxic | toxicity (alamarBlue cell viability assay) (human Müller cells): not toxic
